# Experimental data as given in patent US6362234B1, “Water-soluble prodrugs of propofol for treatment of migrane” (Vyrex Corporation, priority 2000, dated 2002).
# Where a name gives a salt, the structure may show the parent alone.
# Legend:
# [1] = male, Sprague-Dawley, rat, in vivo
# Protocol: (§4) Propofol hemisuccinate sodium salt in aqueous solution was administered to adult male Sprague-Dawley rats by gavage. Blood was collected at 2, 4, 8 and 24 hours after dosing, and analyzed by HPLC as described in example 3.
# [2] = In vivo hydrolysis of propofol hemisuccinate after gavage; details: rats, two day observation period following the dosing
# Protocol: as §4
# [3] = system: low density lipoprotein (LDL); experiment: Copper-promoted oxidation of LDL (conjugated dienes); assay type: biochemical, human; details: 5 μM compound; 100 μg/ml LDL, 5 μM copper sulfate
# Excerpt: (§1) The following experiment is based on the use of low density lipoprotein (LDL) as an oxidizable substrate. LDL is one of the plasma lipoproteins whose oxidation is thought to contribute to the pathogenesis of atherosclerosis. The copper-promoted, the hydrogen peroxide-/horseradish peroxidase-promoted and the myeloperoxidase-promoted oxidation of LDL are models for the free radical-induced oxidation of LDL that occurs in vivo.
# (§2) LDL was isolated from heparinized plasma of normal human donors by ultracentrifugation. Most of the experiments described in this study were performed immediately after isolation. Examples and further details of the experimental procedures may be found in N. Santanam et al J. Clin Invest. 95(6):2594 (1995) and FEBS Letters, 414:549-551 (1997).
# (§3) The formation of conjugated dienes was measured in a spectrophotometer (model DB-3500; SLM-AMINCO, Urbana, Ill.) equipped with a 12 position sample changer. Samples and references were measured continuously for periods of up to several hours. Typically, 100 μg/ml of LDL was incubated in PBS with 1 U horseradish peroxidase (type X, 260 U/mg) in the presence of 50 μM H2O2. For copper-mediated oxidation, 100 μg/ml LDL was incubated with 5 μM copper sulfate solution.
# [4] = system: low density lipoprotein (LDL); experiment: Hydrogen peroxide/horseradish peroxidase-promoted oxidation of LDL (conjugated dienes); assay type: biochemical, human; details: 5 μM compound; 100 μg/ml LDL, 1 U horseradish peroxidase, 50 μM H2O2
# Excerpt: as §1, §2, §3
molecule,measurement,setting,value
"CC(C)c1cccc(C(C)C)c1OC(=O)CCC(=O)O [propofol hemisuccinate, 2,6-diisopropylphenyl hydrogen succinate]",Time of peak blood levels of propofol after dosing,[1],2 to 4 h
same,Condition of the animals after dosing,[2],All the animals remained healthy and active
mono(propofol) phosphate disodium salt [(mono)propofol phosphate],Effect on copper-promoted oxidation of LDL,[3],not significantly affected
same,Effect on oxidation of LDL in the presence of horseradish peroxidase/hydrogen peroxide,[4],not significantly affected
"CC(C)c1cccc(C(C)C)c1OC(=O)CCC(=O)O (as salt: succinate) [propofol hemisuccinate, 2,6-diisopropylphenyl hydrogen succinate]",melting point,,101 to 102 °C
